Where two headings read alike, the source gives them in different places.
Biological target: human Nav1.7 (Homo sapiens (Human), UniProt Q15858)
Assay: FLIPR or FLIPR TETRA sodium dye assay with KCl and test article pre-incubation
Assay type: cell-based
Conditions: read-out: Nav1.7 Activity (μM) FLIPR assay IC50 (μM) ± SEM
[1] = recombinant human Nav1.7 in HEK293 cells, CoroNa Green sodium dye, KCl pre-incubation, veratridine and scorpion venom agonists

human Nav1.7, sequence (Q15858 with tags, fused parts or gaps limits assumed): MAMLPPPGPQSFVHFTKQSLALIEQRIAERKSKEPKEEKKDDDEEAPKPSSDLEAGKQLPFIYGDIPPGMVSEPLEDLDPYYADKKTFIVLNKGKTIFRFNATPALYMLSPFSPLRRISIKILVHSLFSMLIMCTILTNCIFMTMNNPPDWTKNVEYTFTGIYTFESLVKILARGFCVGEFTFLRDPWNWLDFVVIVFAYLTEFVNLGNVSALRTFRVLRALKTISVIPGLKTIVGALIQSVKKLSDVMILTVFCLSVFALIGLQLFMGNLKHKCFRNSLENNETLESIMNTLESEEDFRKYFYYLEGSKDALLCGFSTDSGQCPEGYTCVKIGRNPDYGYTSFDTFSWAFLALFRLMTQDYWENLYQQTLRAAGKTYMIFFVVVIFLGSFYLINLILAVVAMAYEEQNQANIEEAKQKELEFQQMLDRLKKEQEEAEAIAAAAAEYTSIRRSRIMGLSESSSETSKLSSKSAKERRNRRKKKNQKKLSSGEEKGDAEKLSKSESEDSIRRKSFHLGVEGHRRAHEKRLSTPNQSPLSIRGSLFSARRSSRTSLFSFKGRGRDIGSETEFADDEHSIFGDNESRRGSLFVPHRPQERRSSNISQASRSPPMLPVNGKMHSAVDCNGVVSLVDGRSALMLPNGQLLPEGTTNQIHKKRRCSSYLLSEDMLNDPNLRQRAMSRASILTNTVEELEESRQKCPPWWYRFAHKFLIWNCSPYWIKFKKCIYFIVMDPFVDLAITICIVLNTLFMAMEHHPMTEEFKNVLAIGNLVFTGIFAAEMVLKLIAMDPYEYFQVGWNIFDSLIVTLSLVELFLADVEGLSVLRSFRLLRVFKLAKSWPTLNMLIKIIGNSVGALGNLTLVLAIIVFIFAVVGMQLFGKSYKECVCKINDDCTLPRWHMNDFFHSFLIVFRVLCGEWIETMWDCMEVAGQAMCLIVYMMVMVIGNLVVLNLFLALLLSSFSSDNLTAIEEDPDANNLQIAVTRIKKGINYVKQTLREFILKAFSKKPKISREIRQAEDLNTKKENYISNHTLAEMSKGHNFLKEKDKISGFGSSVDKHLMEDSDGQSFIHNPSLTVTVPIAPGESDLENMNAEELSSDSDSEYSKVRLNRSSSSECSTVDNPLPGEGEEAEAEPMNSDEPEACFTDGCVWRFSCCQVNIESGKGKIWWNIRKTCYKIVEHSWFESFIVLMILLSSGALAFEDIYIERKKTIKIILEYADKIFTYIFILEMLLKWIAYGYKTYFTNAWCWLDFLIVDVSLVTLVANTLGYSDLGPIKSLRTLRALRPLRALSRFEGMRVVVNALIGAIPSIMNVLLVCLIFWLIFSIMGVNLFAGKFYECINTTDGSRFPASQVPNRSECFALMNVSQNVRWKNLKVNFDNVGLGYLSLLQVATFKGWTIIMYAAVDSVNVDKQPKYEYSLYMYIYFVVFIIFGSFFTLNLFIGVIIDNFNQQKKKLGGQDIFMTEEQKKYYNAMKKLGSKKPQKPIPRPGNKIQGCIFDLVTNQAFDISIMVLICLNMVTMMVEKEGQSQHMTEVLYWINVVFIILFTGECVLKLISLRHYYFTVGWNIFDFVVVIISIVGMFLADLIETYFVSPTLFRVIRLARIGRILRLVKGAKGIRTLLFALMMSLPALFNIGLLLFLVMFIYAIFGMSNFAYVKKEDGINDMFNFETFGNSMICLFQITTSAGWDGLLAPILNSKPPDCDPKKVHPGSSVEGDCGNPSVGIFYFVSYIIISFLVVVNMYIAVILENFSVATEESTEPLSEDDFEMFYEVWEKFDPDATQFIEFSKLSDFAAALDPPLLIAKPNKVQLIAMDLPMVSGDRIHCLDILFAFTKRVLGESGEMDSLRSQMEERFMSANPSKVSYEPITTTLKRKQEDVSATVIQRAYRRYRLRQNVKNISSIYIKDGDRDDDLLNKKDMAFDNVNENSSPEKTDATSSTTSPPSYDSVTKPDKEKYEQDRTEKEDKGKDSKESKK

Fc1ccc(Oc2ccc(-n3c(C4CCOCC4)nc4ccccc43)cc2)cc1 [Compound 9, 1-(4-(4-fluorophenoxy)phenyl)-2-(tetrahydro-2H-pyran-4-yl)-1H-benzo[d]imidazole]
IC50 [1]: 0.63 ± 0.05 µM

Cn1cc(Cl)c(-c2nc3ccccc3n2-c2ccc(Oc3ccc(F)cc3)cc2)n1 [Compound 10, 2-(4-chloro-1-methyl-1H-pyrazol-3-yl)-1-(4-(4-fluorophenoxy)phenyl)-1H-benzo[d]imidazole]
IC50 [1]: 0.313 ± 0.032 µM

Fc1ccc(Oc2ccc(-n3c(-c4c[nH]cn4)nc4ccccc43)cc2)cc1 [Compound 11, 1-(4-(4-fluorophenoxy)phenyl)-2-(1H-imidazol-4-yl)-1H-benzo[d]imidazole]
IC50: 0.102 ± 0.022 µM

O=C1CC[C@@H](c2nc3ccccc3n2-c2ccc(Oc3ccc(F)cc3)cc2)N1 [Compound 14, (S)-5-(1-(4-(4-fluorophenoxy)-phenyl)-1H-benzo[d]imidazol-2-yl)pyrrolidin-2-one]
IC50 [1]: 0.571 ± 0.07 µM

Fc1ccc(Oc2ccc(-n3c(Cc4nnn[nH]4)nc4ccccc43)cc2)cc1 [Compound 15, 2-((1H-tetrazol-5-yl)methyl)-1-(4-(4-fluorophenoxy)phenyl)-1H-benzo[d]imidazole]
IC50 [1]: > 20 µM

Cc1nnc(Cc2nc3ccccc3n2-c2ccc(Oc3ccc(F)cc3)cc2)[nH]1 [Compound 16, 1-(4-(4-fluorophenoxy)phenyl)-2-((5-methyl-4H-1,2,4-triazol-3-yl)methyl)-1H-benzo[d]imidazole]
IC50: 0.957 ± 0.092 µM

Fc1ccc(Oc2ccc(-n3c(CCN4CCCCC4)nc4ccccc43)cc2)cc1 [Compound 17, 1-(4-(4-fluorophenoxy)phenyl)-2-(2-(piperidin-1-yl)ethyl)-1H-benzo[d]imidazole]
IC50 [1]: 0.081 ± 0.009 µM

NC(=O)CN1CCC(c2nc3ccccc3n2-c2ccc(Oc3ccc(F)cc3)cc2)CC1 [Compound 23, 2-(4-(1-(4-(4-fluorophenoxy)phenyl)-1H-benzo[d]imidazol-2-yl)piperidin-1-yl)acetamide]
IC50 [1]: 1.49 ± 0.225 µM

CCN(CC)C(=O)CN1CCC(c2nc3ccccc3n2-c2ccc(Oc3ccc(F)cc3)cc2)CC1 [Compound 24, N,N-diethyl-2-(4-(1-(4-(4-fluorophenoxy)phenyl)-1H-benzo[d]imidazol-2-yl)piperidin-1-yl)acetamide]
IC50 [1]: 0.516 ± 0.029 µM

NC(=O)CN1CCC[C@H]1c1nc2ccccc2n1-c1ccc(Oc2ccc(F)cc2)cc1 [Compound 25, (S)-2-(2-(1-(4-(4-fluorophenoxy)phenyl)-1H-benzo[d]imidazol-2-yl)pyrrolidin-1-yl)acetamide]
IC50 [1]: 1.22 ± 0.035 µM

Reference: US9828348B2, “Benzimidazole derivatives and use thereof” (priority 2013, dated 2017)
